Source: US8952013B2, “Controlled release sterile injectable aripiprazole formulation and method” (Otsuka Pharmaceutical Co., Ltd., priority 2003, dated 2015)

What was measured:
[1] = hygroscopicity: water content after storage in a dessicator; type: physicochemical; details: after 24 hours inside a dessicator at 60° C. and a humidity of 100%
Protocol: Aripiprazole Anhydrous Crystals B employed in the present invention have low hygroscopicity. For example, Aripiprazole Anhydrous Crystals B employed in the present invention maintain a water content of 0.4% or less after 24 hours inside a dessicator set at a temperature of 60° C. and a humidity of 100%.
Well-known methods of measuring water content can be used as long as they are methods commonly used for measuring the water content of crystals. For example, a method such as the Karl Fischer method can be used.

[2] = at room temperature; cited from earlier work

Row | water content [1] | Structure (SMILES) | aqueous solubility [2]
1 | ≤ 0.4% | O=C1CCc2ccc(OCCCCN3CCN(c4cccc(Cl)c4Cl)CC3)cc2N1 [Aripiprazole Anhydrous Crystals B, Aripiprazole] | –
2 | – | O=C1CCc2ccc(OCCCCN3CCN(c4cccc(Cl)c4Cl)CC3)cc2N1 [Aripiprazole] | < 1 µg/mL
